From patent publication EP3508492A1, “TIACUMICIN DERIVATIVES AND THEIR USE AS ANTIBIOTICS” (priority 2018, dated 2019) come the findings set out here.

Values after ≈ are worked out from the molar mass of the structure shown. Values joined by “and” are separate entries in the source; they are usually repeats but may differ in a detail not shown here. Equal values may be shown once. Read-outs that look alike come from different tables or passages of the source.

By MIC is commonly meant the smallest concentration in the dilution series that meets the test's criterion for growth inhibition. As usually defined, the solubility is how much of the substance goes into solution per volume.

Data set [1] concerns Mycobacterium tuberculosis H37Ra. The data set can be described thus: MIC determination from adjusted liquid culture, serial dilution. The class given is cell-based. To be noted: ATCC 25177 / H37Ra, strain ATCC25177, Middlebrook 7H9 + 10 % ADC, read after 3-14 days. The method, then:
An M. tuberculosis H37Ra (ATCC25177) liquid culture (5 mL, Middlebrook 7H9 broth base + 10 % ADC supplement) was inoculated from original stock (-80°C). After two to five days of shaking at 37°C, an OD600 (optical density at λ = 600 nm) of approximately 1 was observed. […] Plates were covered with plastic foil and a lid. MIC values were determined by visual inspection or by plate reader at 600 nm after 3-14 days (pre-tempered at 37°C with plastic foil, lid removed). Table 1: The MIC values in Table 1 are given in µg/mL and in nmol/mL.

Data set [2] concerns Staphylococcus aureus. The data set can be described thus: MIC determination by broth dilution (CLSI). The following applies: ATCC29213. (In broth dilution the organism is exposed to a series of concentrations in liquid medium.)
Procedure: (§1) The strains of Bacillus subtilis and Staphylococcus aureus were grown overnight at 37 °C on MH II agar plates. (BD™ BBL™ Mueller Hinton II Agar, BD Diagnostics). MIC values were determined by broth dilution method according to the recommendations of the Clinical and Laboratory Standards Institute (CLSI; U.S.A.). The inoculum size was about 7.5 x 10^5 colony forming units/well. The compounds were diluted in H2O from 1.0 mg/mL stock solutions in methanol/H2O 1/1 in a 2-fold dilution series. The microtiter plates were incubated at 37 °C overnight.
For data set [3], the system named is Bacillus subtilis. As to the kind of experiment: MIC determination by broth dilution (CLSI). The following applies: DSM3256.
Procedure: as §1
The nature of data set [4]: Determination of aqueous solubility (UHPLC, caffeine internal standard). The class given is physicochemical. To be noted: for weight-% of isomer (transacylated regioisomer): five hours at room temperature, equal absorption of both regioisomers assumed; for solubility at 5 h: thermodynamic from solid. The procedure: A standard stock solution of each analyte in MeOH at a concentration of 1.0 mg/mL was prepared. All analytes were completely soluble in MeOH. A standard stock solution of caffeine for use as internal standard (IS) in MeOH was prepared at a concentration of 1 mg/mL. These stock solutions were further diluted with MeOH to calibration standard samples at concentrations of 50, 100, 200, 300, 400, 500 µg/mL of analyte with each sample containing 50 µg/mL of caffeine as IS. These samples were analyzed by UHPLC [Kinetex® EVO C18; 1.7 µm; 100 Å, 50 mm x 2.1 mm; Phenomenex; solvent A: H2O + 0.1 % HCOOH, solvent B: MeCN + 0.1 % HCOOH; 0.4 mL/min; 1.0 µL injection volume, LC time program (min - % B): 0.50 min - 5 %, 3.50 min - 95 %, 3.55 min - 100 %; UV detection at λ = 270 nm]. The peak area of the analyte signal was divided by the peak area of the IS. This peak ratio was plotted against the analyte's concentration to obtain a linear equation.
For reproducibility reasons, water solubility of the fidaxomicin derivatives was quantified in a pH = 7 phosphate buffered aqueous solution (Acros, CAS 7558-79-4). A stock solution of caffeine in phosphate buffer at a concentration of 1.0 mg/mL was prepared and diluted to a concentration of 50 µg/mL. To 1.0 mL of this caffeine solution, the analyte was added as a solid until a saturated solution was obtained. This solution was stirred for five hours at room temperature. The mixture was filtered over a 0.22 µm syringe filter and the obtained solution was analyzed by UHPLC. The concentration was then calculated from the linear equation obtained from the calibration.
With most samples of fidaxomicin derivatives, two peaks for the analyte were detected, viz. one for the original substance and one for its regioisomer formed by transacylation of the isobutyric acid ester. In the following table, the total solubility of each analyte is given with the percentage of isomerization added in parentheses (weight-% of transacylated isomer), assuming that both regioisomers feature approximately the same absorption characteristics. Table 2: Aqueous solubility of fidaxomicin derivatives

Setting [5] is: pH = 7 phosphate buffered aqueous solution.

Consider `CCOC(=O)COc1c(Cl)c(O)c(C(=O)O[C@H]2[C@H](O)[C@H](OC)[C@H](OC/C3=C\C=C\C[C@H](O)/C(C)=C/[C@H](CC)[C@@H](O[C@@H]4OC(C)(C)[C@@H](OC(=O)C(C)C)[C@H](O)[C@@H]4O)/C(C)=C/C(C)=C/C[C@@H]([C@@H](C)O)OC3=O)O[C@@H]2C)c(CC)c1Cl` [Compound 5a, Fidaxomicin Ethylacetate], for which the MIC was 2 µg/mL to 8 µg/mL and 1.8 µM to 7 µM in data set [1]; 16 µg/mL and 14 µM in data set [2]; 32 µg/mL and 28 µM in data set [3].
As to `CCOC(=O)COc1c(Cl)c(CC)c(C(=O)O[C@H]2[C@H](O)[C@H](OC)[C@H](OC/C3=C\C=C\C[C@H](O)/C(C)=C/[C@H](CC)[C@@H](O[C@@H]4OC(C)(C)[C@@H](OC(=O)C(C)C)[C@H](O)[C@@H]4O)/C(C)=C/C(C)=C/C[C@@H]([C@@H](C)O)OC3=O)O[C@@H]2C)c(OCC(=O)OCC)c1Cl` [Compound 5b, Fidaxomicin Bis(ethylacetate)], the minimum inhibitory concentration (MIC) in data set [1] was 1 µg/mL to 4 µg/mL and 0.8 µM to 3.3 µM; in data set [2], 32 µg/mL to 64 µg/mL and 26 µM to 52 µM; in data set [3], 8 µg/mL to 16 µg/mL and 6.5 µM to 13 µM.
Take `C=CCOC(=O)N1CCN(C(=O)COc2c(Cl)c(O)c(C(=O)O[C@H]3[C@H](O)[C@H](OC)[C@H](OC/C4=C\C=C\C[C@H](O)/C(C)=C/[C@H](CC)[C@@H](O[C@@H]5OC(C)(C)[C@@H](OC(=O)C(C)C)[C@H](O)[C@@H]5O)/C(C)=C/C(C)=C/C[C@@H]([C@@H](C)O)OC4=O)O[C@@H]3C)c(CC)c2Cl)CC1` [Compound 7a, Fidaxomicin Piperazine with alloc Protecting Group]: the MIC was 16 µg/mL to 32 µg/mL and 12.6 µM to 25.2 µM in data set [2]; > 64 µg/mL and > 50.5 µM in data set [3].
In the case of `CCc1c(Cl)c(OCC(=O)N2CCC(O)CC2)c(Cl)c(O)c1C(=O)O[C@H]1[C@H](O)[C@H](OC)[C@H](OC/C2=C\C=C\C[C@H](O)/C(C)=C/[C@H](CC)[C@@H](O[C@@H]3OC(C)(C)[C@@H](OC(=O)C(C)C)[C@H](O)[C@@H]3O)/C(C)=C/C(C)=C/C[C@@H]([C@@H](C)O)OC2=O)O[C@@H]1C` [Compound 10a], the “weight-% of isomer (transacylated regioisomer)” value in data set [4] (setting [5]) is reported as 7 weight-%. Moreover, the solubility at 5 h in data set [4] (phosphate buffer, aqueous buffer, pH = 7 phosphate buffered aqueous solution, stirred five hours at room temperature, 0.22 µm filter, read-out: Conc. (aqueous solubility, total of both regioisomers)) stood at 180 µg/mL (≈ 150 µM).
For `CCc1c(Cl)c(OCC(=O)N2CCN(c3cc4c(cc3F)c(=O)c(C(=O)O)cn4C3CC3)CC2)c(Cl)c(O)c1C(=O)O[C@H]1[C@H](O)[C@H](OC)[C@H](OC/C2=C\C=C\C[C@H](O)/C(C)=C/[C@H](CC)[C@@H](O[C@@H]3OC(C)(C)[C@@H](OC(=O)C(C)C)[C@H](O)[C@@H]3O)/C(C)=C/C(C)=C/C[C@@H]([C@@H](C)O)OC2=O)O[C@@H]1C` [Compound 11a, Fidaxomicin-Ciprofloxacin Hybrid], the MIC in data set [1] is 16 µg/mL to 64 µg/mL and 11.2 µM to 44.8 µM; in data set [2] it was > 64 µg/mL and > 44.8 µM.
As to `CCc1c(Cl)c(O)c(Cl)c(O)c1C(=O)O[C@H]1[C@H](O)[C@H](OC)[C@H](OCC2=CC=CC[C@H](O)C(C)=C[C@H](CC)[C@@H](O[C@@H]3OC(C)(C)[C@@H](OC(=O)C(C)C)[C@H](O)[C@@H]3O)C(C)=CC(C)=CC[C@@H]([C@@H](C)O)OC2=O)O[C@@H]1C` [Fidaxomicin, 3-(((6-Deoxy-4-O-(3,5-dichloro-2-ethyl-4,6-dihydroxybenzoyl)-2-O-methyl-β-D-mannopyranosyl)oxy)-methyl)-12(R)-[(6-deoxy-5-C-methyl-4-O-(2-methyl-1-oxopropyl)-β-D-lyxo-hexopyranosyl)oxy]-11(S)-ethyl-8(S)-hydroxy-18(S)-(1(R)-hydroxyethyl)-9,13,15-trimethyloxacyclooctadeca-3,5,9,13,15-pentaene-2-one, reference compound], the MIC in data set [1] is 4 µg/mL and 3.8 µM; in data set [2], 8 µg/mL to 16 µg/mL and 7.6 µM to 15.1 µM; in data set [3], 8 µg/mL to 16 µg/mL and 7.6 µM to 15.1 µM. In data set [4] (pH 7, aqueous buffer), this molecule showed a solubility at 5 h of 84 µg/mL (≈ 79.4 µM). In data set [4] (setting [5]), the “weight-% of isomer (transacylated regioisomer)” value was 9 weight-%.
